# Patent US9040545B2, “Heterocyclyl pyrazolopyrimidine analogues as selective JAK inhibitors” (Cellzome Limited, priority 2010, dated 2015)
# Biological target: T1, JAK3 (Homo sapiens, UniProt P52333)
# T1 construct: endogenous in cells; host or cells: mixed Molt4/Ramos lysate (1:2)
# T1 sequence (P52333 1-1124): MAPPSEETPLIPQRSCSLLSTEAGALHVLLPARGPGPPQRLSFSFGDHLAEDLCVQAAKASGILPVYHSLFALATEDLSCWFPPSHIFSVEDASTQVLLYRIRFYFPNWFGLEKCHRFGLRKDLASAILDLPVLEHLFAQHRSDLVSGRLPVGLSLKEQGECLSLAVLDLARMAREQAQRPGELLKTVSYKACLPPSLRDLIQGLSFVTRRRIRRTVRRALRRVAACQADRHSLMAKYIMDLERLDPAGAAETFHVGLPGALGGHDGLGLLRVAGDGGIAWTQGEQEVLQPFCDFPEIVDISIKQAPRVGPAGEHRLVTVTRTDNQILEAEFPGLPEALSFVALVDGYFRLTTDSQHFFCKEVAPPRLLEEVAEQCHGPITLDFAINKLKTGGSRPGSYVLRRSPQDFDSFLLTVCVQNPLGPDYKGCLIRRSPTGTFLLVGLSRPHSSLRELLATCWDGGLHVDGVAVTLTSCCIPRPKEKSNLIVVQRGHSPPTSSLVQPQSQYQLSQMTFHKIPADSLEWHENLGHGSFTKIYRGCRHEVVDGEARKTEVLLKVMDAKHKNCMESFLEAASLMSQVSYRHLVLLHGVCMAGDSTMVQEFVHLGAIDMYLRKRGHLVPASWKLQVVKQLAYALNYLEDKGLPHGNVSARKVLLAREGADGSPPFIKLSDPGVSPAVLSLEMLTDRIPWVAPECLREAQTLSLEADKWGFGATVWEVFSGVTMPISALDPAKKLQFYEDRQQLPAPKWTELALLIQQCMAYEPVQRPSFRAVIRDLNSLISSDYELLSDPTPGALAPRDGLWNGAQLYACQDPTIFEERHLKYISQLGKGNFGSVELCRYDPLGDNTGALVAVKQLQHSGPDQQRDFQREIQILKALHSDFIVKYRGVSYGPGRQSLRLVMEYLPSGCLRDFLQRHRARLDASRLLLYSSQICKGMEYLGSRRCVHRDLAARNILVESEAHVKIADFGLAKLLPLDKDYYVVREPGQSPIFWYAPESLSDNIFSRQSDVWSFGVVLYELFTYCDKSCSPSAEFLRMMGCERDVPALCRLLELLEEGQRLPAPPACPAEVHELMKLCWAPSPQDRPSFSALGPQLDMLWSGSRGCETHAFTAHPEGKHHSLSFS
# Assay: Kinobeads assay, JAK3
# Assay type: binding
# Conditions: mixed Molt4/Ramos lysate, read-out: Inhibition values (IC50) JAK3
# Experimental: The compounds of the present invention as described in the previous examples were tested in a Kinobeads™ assay as described for ZAP-70 (WO-A 2007/137867). Briefly, test compounds (at various concentrations) and the affinity matrix with the immobilized aminopyrido-pyrimidine ligand 24 were added to cell lysate aliquots and allowed to bind to the proteins in the lysate sample. After the incubation time the beads with captured proteins were separated from the lysate. Bound proteins were then eluted and the presence of JAK2 and JAK3 was detected and quantified using specific antibodies in a dot blot procedure and the Odyssey infrared detection system. Dose response curves for individual kinases were generated and IC50 values calculated. Kinobeads™ assays for ZAP-70 (WO-A 2007/137867) and for kinase selectivity profiling (WO-A 2006/134056) have been previously described.
# The affinity matrix was washed two times with 15 mL of 1×DP buffer containing 0.2% NP40 (IGEPAL® CA-630, Sigma, #I3021) and then resuspended in 1×DP buffer containing 0.2% NP40 (3% beads slurry).
# 5×DP buffer 250 mM Tris-HCl pH 7.4, 25% Glycerol, 7.5 mM MgCl2, 750 mM NaCl, 5 mM Na3VO4; filter the 5×DP buffer through a 0.22 μm filter and store in aliquots at −80° C. The 5×DP buffer is diluted with H2O to 1×DP buffer containing 1 mM DTT and 25 mM NaF.
# Stock solutions of test compounds were prepared in DMSO. In a 96 well plate 30 μL solution of diluted test compounds at 5 mM in DMSO were prepared. Starting with this solution a 1:3 dilution series (9 steps) was prepared. For control experiments (no test compound) a buffer containing 2% DMSO was used.
# Molt4 cells (ATCC catalogue number CRL-1582) and Ramos cells (ATCC catalogue number CRL-1596) were grown in 1 L Spinner flasks (Integra Biosciences, #182101) in suspension in RPMI 1640 medium (Invitrogen, #21875-034) supplemented with 10% Fetal Bovine Serum (Invitrogen) at a density between 0.15×106 and 1.2×10^6 cells/mL. Cells were harvested by centrifugation, washed once with 1×PBS buffer (Invitrogen, #14190-094) and cell pellets were frozen in liquid nitrogen and subsequently stored at −80° C. Cells were homogenized in a Potter S homogenizer in lysis buffer: 50 mM Tris-HCl, 0.8% NP40, 5% glycerol, 150 mM NaCl, 1.5 mM MgCl2, 25 mM NaF, 1 mM sodium vanadate, 1 mM DTT, pH 7.5. One complete EDTA-free tablet (protease inhibitor cocktail, Roche Diagnostics, 1873580) per 25 mL buffer was added. The material was dounced 10 times using a mechanized POTTER S, transferred to 50 mL falcon tubes, incubated for 30 minutes on ice and spun down for 10 minutes at 20,000 g at 4° C. (10,000 rpm in Sorvall SLA600, precooled). The supernatant was transferred to an ultracentrifuge (UZ)-polycarbonate tube (Beckmann, 355654) and spun for 1 hour at 100,000 g at 4° C. (33.500 rpm in Ti50.2, precooled). The supernatant was transferred again to a fresh 50 mL falcon tube, the protein concentration was determined by a Bradford assay (BioRad) and samples containing 50 mg of protein per aliquot were prepared. The samples were immediately used for experiments or frozen in liquid nitrogen and stored frozen at −80° C.
# Cell lysate (approximately 50 mg protein per plate) was thawed in a water bath at room temperature and then stored on ice. To the thawed cell lysate 1×DP 0.8% NP40 buffer containing protease inhibitors (1 tablet for 25 mL buffer; EDTA-free protease inhibitor cocktail; Roche Diagnostics 1873580) was added in order to reach a final protein concentration of 10 mg/mL total protein. The diluted cell lysate was stored on ice. Mixed Molt4/Ramos lysate was prepared by combining one volume of Molt4 lysate and two volumes of Ramos lysate (ratio 1:2).
# To a 96 well filter plate (Multiscreen HTS, BV Filter Plates, Millipore #MSBVN1250) were added per well: 100 μL affinity matrix (3% beads slurry), 3 μL of compound solution, and 50 μL of diluted lysate. […]
row,IC50 [nM],Compound
1,< 100,"CCn1cc(-c2cccc(Cn3ncc4cnc(Nc5cnn(C)c5)nc43)c2)cn1 [Example 116, 1-(3-(1-ethyl-1H-pyrazol-4-yl)benzyl)-N-(1-methyl-1H-pyrazol-4-yl)-1H-pyrazolo[3,4-d]pyrimidin-6-amine]"
2,< 100,"Cn1cc(Nc2ncc3cnn(Cc4c(F)c(F)cc(C(=O)N5CCOCC5)c4F)c3n2)cn1 [Example 110, morpholino(2,4,5-trifluoro-3-((6-((1-methyl-1H-pyrazol-4-yl)amino)-1H-pyrazolo[3,4-d]pyrimidin-1-yl)methyl)phenyl)methanone]"
3,< 100,"O=C(c1cc(F)c(F)c(Cn2ncc3cnc(Nc4cnn(CCO)c4)nc32)c1F)N1CCOCC1 [Example 111, morpholino(2,4,5-trifluoro-3-((6-((1-(2-hydroxyethyl)-1H-pyrazol-4-yl)amino)-1H-pyrazolo[3,4-d]pyrimidin-1-yl)methyl)phenyl)methanone]"
4,< 100,"Cn1cc(Nc2ncc3cnn(Cc4cccc(-c5cnn(C)c5)c4)c3n2)cn1 [Example 115, N-(1-methyl-1H-pyrazol-4-yl)-1-(3-(1-methyl-1H-pyrazol-4-yl)benzyl)-1H-pyrazolo[3,4-d]pyrimidin-6-amine]"
5,< 100,"C[C@@H]1COCCN1c1cccc(Cn2ncc3cnc(Nc4cnn(C)c4)nc32)c1 [Example 113, (R)-N-(1-methyl-1H-pyrazol-4-yl)-1-(3-(3-methylmorpholino)benzyl)-1H-pyrazolo[3,4-d]pyrimidin-6-amine]"
6,< 100,"O=C(Cn1cc(Nc2ncc3cnn(Cc4cc(F)cc(N5CCOCC5=O)c4)c3n2)cn1)N1CCNCC1 [Example 109, 4-(3-fluoro-5-((6-((1-(2-oxo-2-(piperazin-1-yl)ethyl)-1H-pyrazol-4-yl)amino)-1H-pyrazolo[3,4-d]pyrimidin-1-yl)methyl)phenyl)morpholin-3-one]"
7,< 100,"N#CCCn1cc(Nc2ncc3cnn(Cc4cc(F)cc(N5CCOCC5=O)c4)c3n2)cn1 [Example 107, 3-(4-((1-(3-fluoro-5-(3-oxomorpholino)benzyl)-1H-pyrazolo[3,4-d]pyrimidin-6-yl)amino)-1H-pyrazol-1-yl)propanenitrile]"
8,< 100,"O=C1CC(Cn2cc(Nc3ncc4cnn(Cc5cc(F)cc(N6CCOCC6=O)c5)c4n3)cn2)CN1 (centres unmarked) [Example 105, 4-(3-fluoro-5-((6-((1-((5-oxopyrrolidin-3-yl)methyl)-1H-pyrazol-4-yl)amino)-1H-pyrazolo[3,4-d]pyrimidin-1-yl)methyl)phenyl)morpholin-3-one]"
9,< 100,"Cn1cc(Nc2ncc3cnn(Cc4cc(C(=O)N5CCOCC5)cc(F)c4F)c3n2)cn1 [Example 98, (3,4-difluoro-5-((6-((1-methyl-1H-pyrazol-4-yl)amino)-1H-pyrazolo[3,4-d]pyrimidin-1-yl)methyl)phenyl)(morpholino)methanone]"
10,< 100,"Cn1cc(Nc2ncc3cnn(Cc4cccc(-c5cn[nH]c5)c4)c3n2)cn1 [Example 118, 1-(3-(1H-pyrazol-4-yl)benzyl)-N-(1-methyl-1H-pyrazol-4-yl)-1H-pyrazolo[3,4-d]pyrimidin-6-amine]"

# More lines, now with the values behind:
row,Compound,IC50 [nM]
1,"Cn1cc(Nc2ncc3cnn(Cc4cc(F)cc(N5CCNCC5)c4F)c3n2)cn1 [Example 95, 1-(2,5-difluoro-3-(piperazin-1-yl)benzyl)-N-(1-methyl-1H-pyrazol-4-yl)-1H-pyrazolo[3,4-d]pyrimidin-6-amine]",< 100
2,"Cn1cc(Nc2ncc3cnn(Cc4cccc(N5CCS(=O)(=O)CC5)c4)c3n2)cn1 [Example 25, 4-(3-((6-((1-Methyl-1H-pyrazol-4-yl)amino)-1H-pyrazolo[3,4-d]pyrimidin-1-yl)methyl)phenyl)thiomorpholine 1,1-dioxide]",< 100
3,"CNC(=O)Cn1cc(Nc2ncc3cnn(Cc4cccc(N5CCOCC5)c4)c3n2)cn1 [Example 12, N-Methyl-2-(4-((1-(3-morpholinobenzyl)-1H-pyrazolo[3,4-d]pyrimidin-6-yl)amino)-1H-pyrazol-1-yl)acetamide]",< 100
4,"CCOC(=O)C1CCCN(c2cccc(Cn3ncc4cnc(Nc5cnn(C)c5)nc43)c2)C1 (centres unmarked) [Example 13, Ethyl 1-(3-((6-((1-methyl-1H-pyrazol-4-yl)amino)-1H-pyrazolo[3,4-d]pyrimidin-1-yl)methyl)phenyl)piperidine-3-carboxylate]",100 to 1000
5,"NC(=O)CCn1cc(Nc2ncc3cnn(Cc4cccc(N5CCOCC5)c4)c3n2)cn1 [Example 14, 3-(4-((1-(3-Morpholinobenzyl)-1H-pyrazolo[3,4-d]pyrimidin-6-yl)amino)-1H-pyrazol-1-yl)propanamide]",< 100
6,Cn1cc(Nc2ncc3cnn(Cc4cccc(N5CC6CCC(C5)O6)c4)c3n2)cn1 [Example 26],< 100
7,"FC(F)Cn1cc(Nc2ncc3cnn(Cc4cccc(N5CCOCC5)c4)c3n2)cn1 [Example 23, N-(1-(2,2-Difluoroethyl)-1H-pyrazol-4-yl)-1-(3-morpholinobenzyl)-1H-pyrazolo[3,4-d]pyrimidin-6-amine]",< 100
8,"NCCCn1cc(Nc2ncc3cnn(Cc4cccc(N5CCOCC5)c4)c3n2)cn1 [Example 34, N-(1-(3-Aminopropyl)-1H-pyrazol-4-yl)-1-(3-morpholinobenzyl)-1H-pyrazolo[3,4-d]pyrimidin-6-amine]",< 100
9,"O=C(CCn1cc(Nc2ncc3cnn(Cc4cccc(N5CCOCC5)c4)c3n2)cn1)NC1CC1 [Example 35, N-Cyclopropyl-3-(4-((1-(3-morpholinobenzyl)-1H-pyrazolo[3,4-d]pyrimidin-6-yl)amino)-1H-pyrazol-1-yl)propanamide]",< 100
10,"Cn1cc(Nc2ncc3cnn(Cc4cccc(N5CCOCC5=O)c4F)c3n2)cn1 [Example 40, 4-(2-Fluoro-3-((6-((1-methyl-1H-pyrazol-4-yl)amino)-1H-pyrazolo[3,4-d]pyrimidin-1-yl)methyl)phenyl)morpholin-3-one]",< 100
